{
  "source": "paper PMC6413952",
  "about": "“Discovery of ABBV-4083, a novel analog of Tylosin A that has potent anti-Wolbachia and anti-filarial activity” (PLoS Neglected Tropical Diseases, 2019)",
  "key": {"[1]": {"assay": "In vitro genotoxicity screening assays", "type": "cell-based", "excerpt": "(§1) As a preclinical candidate, ABBV-4083 has been evaluated in a variety of in vitro assays assessing preclinical safety. […] In preparation for first-in-human studies, the safety of ABBV-4083 has been extensively evaluated in 28-day GLP general and reproductive toxicity studies. In addition, the synthesis has been adapted to produce GMP quality supplies."}, "[2]": {"test_system": "Wolbachia pipientis in Aedes albopictus C6/36 (wAlbB) insect cells", "assay": "A·WOL Wolbachia-infected Aedes albopictus (C6/36 wAlbB) 7-day cell-based assay, high content imaging", "excerpt": "Compounds were screened for anti-Wolbachia activity in vitro in the A·WOL-validated Wolbachia-infected Aedes albopictus (C6/36 wAlbB) 7-day cell-based assay which utilizes a 384-well format assay with high content imaging (HCI) (Operetta) as described previously.\nWe began our work by selecting a diverse and representative sample of the AbbVie antibiotics collection (129 compounds) for single-point testing against Wolbachia pipientis in an insect cell line. […] While TylA has a long history of use in multiple animal species, it has never been studied in humans; and its activity against Wolbachia has not previously been reported."}, "[3]": {"assay": "In vitro high-content steatosis screen", "type": "cell-based", "excerpt": "as §1"}, "[4]": {"test_system": "77 mammalian receptors, ion channels, enzymes and transporters", "set-up": "method as in PMID 30867321", "details": "cited from earlier work"}, "[5]": {"test_system": "Litomosoides sigmodontis / Wolbachia", "assay": "Litomosoides sigmodontis microfilariae-positive jird model", "type": "in vivo, jirds (Meriones unguiculatus)", "experimental": "As described previously, female BALB/c mice or female jirds were infected at 6–8 weeks of age with L. sigmodontis larvae through the bites of Ornithonyssus bacoti mites.\nStarting at 14 weeks post infection, microfilariae-positive jirds (n = 7 per group) were dosed PO with ABBV-4083 (150 mg/kg QD) dissolved in 0.5% HPMC/0.02% Tween-80 or vehicle using a volume of 5ml/kg. Microfilariae numbers were assessed through visual inspection of blood samples collected from the saphenous vein at weekly intervals post-dosing. For this, 10 μl of peripheral blood were diluted in 300 μl of Hinkelmann solution (0.5% Eosin Y, 0.5% Phenol, 0.185% Formaldehyde in aqua dest). After 5 minutes of centrifugation at 400g, the supernatant was discarded and the pellet transferred for microscopic quantification of the microfilariae. At 16 weeks post-treatment, jirds were euthanized by an overdose of isoflurane; worms were recovered from the pleural cavity and counted. Remaining intact female adult worms were used to assess embryogenesis and the Wolbachia load. For the latter, genomic DNA (gDNA) was extracted from individual female adult worms and quantification of the Wolbachia ftsZ (wLs-ftsZ) and L. sigmodontis β-actin (Ls-act) gene copy numbers was performed by quantitative real-time PCR (qPCR).\nFor embryograms, remaining intact female adult worms were individually homogenized in 20% Hinkelmann/80% PBS solution, diluted 1:10 in PBS and quantified by microscopy. Embryonal stages were differentiated as egg, morulae, pretzel and stretched microfilariae."}, "receptors": {"test_system": "receptors", "assay": "Battery of 35 assays assessing general selectivity", "type": "binding", "details": "maximum concentration of 10 μM", "excerpt": "as §1"}, "[6]": {"test_system": "Litomosoides, Brugia and Onchocerca", "set-up": "method as in PMID 30867321", "details": "cited from earlier work; for anti-Wolbachia efficacy compared with doxycycline: shorter durations of treatment"}, "[7]": {"assay": "Rat oral pharmacokinetic study (plasma AUC, C8hr)", "type": "in vivo, Sprague-Dawley rats", "details": "for AUC*/EC50: potency-weighted AUC", "experimental": "PO doses were administrated by oral gavage, IP doses by intraperitoneal injection to BALB/c mice or Sprague-Dawley rats (Charles River Laboratories, USA). Serial blood samples collected into EDTA anticoagulant for plasma concentration analysis were obtained from each animal after dosing. EDTA preserved plasma samples were extracted by protein precipitation with acetonitrile fortified with internal standards. The supernatant was injected into an HPLC-MS/MS system for separation and quantitation. Detection was accomplished using a triple quadrupole mass spectrometer operated either in electrospray or atmospheric chemical ionization (APCI) mode. The area under the plasma concentration-time curve (AUC) was calculated using the linear trapezoidal rule."}, "[8]": {"assay": "Cardiovascular effects in dogs", "type": "in vivo", "details": "administered to dogs", "excerpt": "as §1"}, "hERG channel": {"target": "hERG channel (Homo sapiens, UniProt Q12809)", "sequence (Q12809 whole entry)": "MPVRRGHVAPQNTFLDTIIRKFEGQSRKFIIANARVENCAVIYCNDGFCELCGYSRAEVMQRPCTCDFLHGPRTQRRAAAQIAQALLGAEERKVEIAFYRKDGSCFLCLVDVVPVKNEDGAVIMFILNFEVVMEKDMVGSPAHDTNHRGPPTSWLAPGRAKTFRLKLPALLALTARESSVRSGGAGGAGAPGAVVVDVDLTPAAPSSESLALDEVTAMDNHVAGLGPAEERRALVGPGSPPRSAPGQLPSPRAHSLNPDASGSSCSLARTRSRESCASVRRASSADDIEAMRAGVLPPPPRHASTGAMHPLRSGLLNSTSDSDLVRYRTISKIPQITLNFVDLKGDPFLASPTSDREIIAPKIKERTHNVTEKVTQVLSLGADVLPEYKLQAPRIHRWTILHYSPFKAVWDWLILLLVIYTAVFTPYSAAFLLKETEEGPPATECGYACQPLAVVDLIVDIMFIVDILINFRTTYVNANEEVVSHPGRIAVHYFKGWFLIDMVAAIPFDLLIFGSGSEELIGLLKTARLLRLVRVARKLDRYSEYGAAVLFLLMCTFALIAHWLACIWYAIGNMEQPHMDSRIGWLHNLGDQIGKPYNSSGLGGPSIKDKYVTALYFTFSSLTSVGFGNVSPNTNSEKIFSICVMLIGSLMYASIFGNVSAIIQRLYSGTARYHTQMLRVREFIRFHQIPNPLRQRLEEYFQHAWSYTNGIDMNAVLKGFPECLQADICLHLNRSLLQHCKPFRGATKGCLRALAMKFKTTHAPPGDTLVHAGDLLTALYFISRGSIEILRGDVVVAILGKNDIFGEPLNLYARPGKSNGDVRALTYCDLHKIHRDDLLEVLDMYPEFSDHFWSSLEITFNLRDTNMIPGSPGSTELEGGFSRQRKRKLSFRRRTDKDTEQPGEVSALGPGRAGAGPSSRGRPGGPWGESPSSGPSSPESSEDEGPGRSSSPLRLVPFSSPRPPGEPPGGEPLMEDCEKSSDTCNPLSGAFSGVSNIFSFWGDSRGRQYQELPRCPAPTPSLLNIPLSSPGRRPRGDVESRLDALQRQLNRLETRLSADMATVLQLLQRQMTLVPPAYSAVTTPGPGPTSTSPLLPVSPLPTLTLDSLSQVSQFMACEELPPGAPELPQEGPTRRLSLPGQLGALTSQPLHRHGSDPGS", "assay": "Functional hERG channel activity", "type": "biochemical", "details": "maximum concentration of 30 μM", "excerpt": "as §1"}, "[9]": {"assay": "In vitro phospholipidosis assay", "type": "cell-based", "excerpt": "as §1"}, "[10]": {"test_system": "gram(+) and gram(-) microorganisms", "set-up": "method as in PMID 30867321", "details": "majority of panel; cited from earlier work"}},
  "note": "Where two headings read alike, the source gives them in different places.",
  "data": [
    {"smiles": "CC[C@H]1OC(=O)C[C@@H](O)[C@H](C)[C@@H](O[C@@H]2O[C@H](C)[C@@H](O[C@H]3C[C@@](C)(O)[C@@H](OCc4ccc(F)cc4)[C@H](C)O3)[C@H](N(C)C)[C@H]2O)[C@@H](CC=O)C[C@@H](C)C(=O)/C=C/C(C)=C/[C@@H]1CO[C@@H]1O[C@H](C)[C@@H](O)[C@@H](OC)[C@H]1OC", "note": "[Compound 5d]", "values": [
      {"measurement": "genotoxicity", "setting": "[1]", "result": "neither mutagenic nor clastogenic"},
      {"measurement": "EC50", "setting": "[2]; C6/36, Wolbachia-infected insect cells, geometric mean (N), each N a duplicate measurement", "result": 0.019, "unit": "nM"},
      {"measurement": "potency improvement (EC50) over TylA", "setting": "[2]; EC50 lower than parent TylA", "result": "1,500 fold"},
      {"measurement": "steatosis", "setting": "[3]", "result": "did not induce steatosis"},
      {"measurement": "interactions across 77 assays", "setting": "[4]", "result": "significant interaction was only observed in two assays"},
      {"measurement": "Wolbachia depletion", "setting": "[5]; 150mg/kg 14days QD, Fig 3A", "result": "-99,91%"},
      {"measurement": "embryogenesis (embryograms of female worms)", "setting": "[5]; 150 mg/kg PO QD 14 days, 16 weeks post treatment start", "result": "near-complete loss of all embryonic forms including eggs"},
      {"measurement": "circulating microfilariae", "setting": "[5]; 150 mg/kg PO QD 14 days, from 12 weeks pti until 16 weeks pti", "result": "completely cleared"},
      {"measurement": "reduction of Wolbachia levels in recovered female adult worms", "setting": "[5]; 150 mg/kg PO once daily for 14 days, 16 weeks post-treatment-initiation", "result": "> 99.9", "unit": "%"},
      {"measurement": "interactions with receptors in 35 selectivity assays", "setting": "receptors", "result": "no significant interactions with any receptors"},
      {"measurement": "direct microfilaricidal activity", "setting": "[6]", "result": "not directly microfilaricidal"},
      {"measurement": "anti-Wolbachia efficacy compared with doxycycline", "setting": "[6]", "result": "superior to doxycycline"},
      {"measurement": "anti-Wolbachia efficacy compared with doxycycline", "setting": "[6]; listed as ABBV-4083", "result": "equals or exceeds the efficacy of doxycycline"},
      {"measurement": "C*8hr", "setting": "[7]; PO rats, C(8hr)/dose", "result": 0.75, "unit": "ng/mL per mg/kg"},
      {"measurement": "AUC* parent", "setting": "[7]; PO, Sprague-Dawley rats, AUC* = AUC/dose", "result": 16, "unit": "ng-hr/ml per mg/kg"},
      {"measurement": "AUC* TylA (metabolite)", "setting": "[7]; PO, Sprague-Dawley rats, primary metabolite TylA, AUC/dose", "result": "<0.6", "unit": "ng-hr/ml per mg/kg"},
      {"measurement": "potency-weighted 8-hr drug level (C8hr/dose/EC50) relative to TylA", "setting": "[7]; oral dosing", "result": "2,000 fold"},
      {"measurement": "potency-weighted AUC (AUC*/EC50) relative to TylA", "setting": "[7]; oral dosing", "result": "2,500 fold"},
      {"measurement": "improvement in plasma drug levels (AUC) over TylA", "setting": "[7]; oral dosing, rats", "result": 1.7, "unit": "fold"},
      {"measurement": "metabolic stability of substituent / species observed in plasma", "setting": "[7]; oral pharmacokinetic study", "result": "only parent drug is observed in the plasma"},
      {"measurement": "C*8hr/ EC50", "setting": "[7]; potency-weighted 8-hr drug level, PO rats", "result": 39.5, "unit": "ng/ml/nM per mg/kg"},
      {"measurement": "AUC*/EC50", "setting": "[7]; PO rats", "result": 842, "unit": "ng-hr/ml/nM per mg/kg"},
      {"measurement": "AUC*/EC50", "setting": "[7]; rat", "result": "842,000 ng-hr/ml/uM per mg/kg"},
      {"measurement": "cardiovascular effects", "setting": "[8]", "result": "did not produce significant cardiovascular effects"},
      {"measurement": "inhibition of functional hERG channel activity", "setting": "hERG channel", "result": "did not inhibit"},
      {"measurement": "phospholipidosis", "setting": "[9]", "result": "No potential to induce phospholipidosis"},
      {"measurement": "change in susceptibility compared with TylA", "setting": "[10]", "result": "little to no change in susceptibility"}
    ]}
  ]
}
